In the supplement of paper PMC11451515:

System: SEM cells
Test: cell viability relative to DMSO control; higher = less cytotoxic
Conditions: 48 h
Outline: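 Viability, reported as a per-plate percentage of DMSO wells with cell-free wells as background, came from CellTiter-Glo One luminescence. Reading took place after 48 h at 37°C. Before that, NOMO1 or SEM (500 cells/well) or P12-Ichikawa (1000 cells/well) leukemia cells, adapted for at least four passages in each medium, were seeded in 1536-well plates (5 μl) and pin-dosed with library compounds in DMSO, 47 μM to 0.79 nM over 11 threefold points.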

[1] = HPLM + 10% dialyzed FBS, 0.000781 µM
[2] = HPLM + 10% dialyzed FBS, 0.00234 µM
[3] = HPLM + 10% dialyzed FBS, 0.00702 µM
[4] = HPLM + 10% dialyzed FBS, 0.0211 µM
[5] = HPLM + 10% dialyzed FBS, 0.0632 µM
[6] = HPLM + 10% dialyzed FBS, 0.19 µM
[7] = HPLM + 10% dialyzed FBS, 0.569 µM
[8] = HPLM + 10% dialyzed FBS, 1.71 µM
[9] = HPLM + 10% dialyzed FBS, 5.12 µM
[10] = HPLM + 10% dialyzed FBS, 15.4 µM
[11] = HPLM + 10% dialyzed FBS, 46.1 µM
[12] = RPMI 5 mM glucose + 10% FBS, 0.000781 µM
[13] = RPMI 5 mM glucose + 10% FBS, 0.00234 µM
[14] = RPMI 5 mM glucose + 10% FBS, 0.00702 µM
[15] = RPMI 5 mM glucose + 10% FBS, 0.0211 µM
[16] = RPMI 5 mM glucose + 10% FBS, 0.0632 µM
[17] = RPMI 5 mM glucose + 10% FBS, 0.19 µM
[18] = RPMI 5 mM glucose + 10% FBS, 0.569 µM
[19] = RPMI 5 mM glucose + 10% FBS, 1.71 µM
[20] = RPMI 5 mM glucose + 10% FBS, 5.12 µM
[21] = RPMI 5 mM glucose + 10% FBS, 15.4 µM
[22] = RPMI 5 mM glucose + 10% FBS, 46.1 µM
[23] = RPMI 5 mM glucose + 10% dialyzed FBS, 0.000781 µM
[24] = RPMI 5 mM glucose + 10% dialyzed FBS, 0.00234 µM
[25] = RPMI 5 mM glucose + 10% dialyzed FBS, 0.00702 µM
[26] = RPMI 5 mM glucose + 10% dialyzed FBS, 0.0211 µM
[27] = RPMI 5 mM glucose + 10% dialyzed FBS, 0.0632 µM
[28] = RPMI 5 mM glucose + 10% dialyzed FBS, 0.19 µM
[29] = RPMI 5 mM glucose + 10% dialyzed FBS, 0.569 µM
[30] = RPMI 5 mM glucose + 10% dialyzed FBS, 1.71 µM
[31] = RPMI 5 mM glucose + 10% dialyzed FBS, 5.12 µM
[32] = RPMI 5 mM glucose + 10% dialyzed FBS, 15.4 µM
[33] = RPMI 5 mM glucose + 10% dialyzed FBS, 46.1 µM

SMILES	cell viability [1] [%]	cell viability [2] [%]	cell viability [3] [%]	cell viability [4] [%]	cell viability [5] [%]	cell viability [6] [%]	cell viability [7] [%]	cell viability [8] [%]	cell viability [9] [%]	cell viability [10] [%]	cell viability [11] [%]	cell viability [12] [%]	cell viability [13] [%]	cell viability [14] [%]	cell viability [15] [%]	cell viability [16] [%]	cell viability [17] [%]	cell viability [18] [%]	cell viability [19] [%]	cell viability [20] [%]	cell viability [21] [%]	cell viability [22] [%]	cell viability [23] [%]	cell viability [24] [%]	cell viability [25] [%]	cell viability [26] [%]	cell viability [27] [%]	cell viability [28] [%]	cell viability [29] [%]	cell viability [30] [%]	cell viability [31] [%]	cell viability [32] [%]	cell viability [33] [%]
CN[C@@H]1C[C@H]2O[C@@](C)([C@@H]1OC)n1c3ccccc3c3c4c(c5c6ccccc6n2c5c31)C(=O)N[C@H]4O	72.1	79.1	87.6	77.7	64	55.4	36.7	16.5	6.79	3.78	3.23	81.2	87.9	83.8	84.1	57.5	69.5	35.4	5.65	4.44	4.12	2.58	82.8	78	76.6	90.4	67.3	69.8	45	5.6	5.83	3.57	2.57
Cc1cc(Cl)ccc1OCCCC(=O)NO	105	96.7	103	117	130	120	118	101	89	34	12.8	107	101	102	122	112	117	115	124	91.7	43.9	10.9	98.8	96.2	93.5	99.4	97.1	106	105	89.5	76.5	26.7	10.2
Cc1ccc(C(=O)c2cc(O)c(O)c([N+](=O)[O-])c2)cc1	78.2	96.4	98.5	81.4	97.7	91.1	115	110	108	111	95.6	92.6	88	103	100	96.7	101	101	99.7	110	87.6	95.9	83.1	82.8	88.7	96.1	93.4	94	80.8	89.4	102	88.8	101
CCCCCCCCc1ccc(CCC(N)(CO)CO)cc1	103	108	108	111	101	120	110	118	97.1	83.2	2.73	99.4	115	107	120	122	111	115	121	93.7	107	2.59	105	116	117	110	104	110	115	109	107	124	3.38
Cc1[nH]c(/C=C2\C(=O)Nc3ccc([S+](=O)([O-])Cc4c(Cl)cccc4Cl)cc32)c(C)c1C(=O)N1CCC[C@@H]1CN1CCCC1	100	103	102	103	112	96.6	94.8	76.5	6.42	45.4	9.75	116	114	107	116	111	118	109	101	25.7	56.7	34	84.9	99.4	85.3	94.2	86.8	93.2	92.4	72.5	42	42.3	26.7
NC\1=N\C(=O)N(\C=C1)[C@H]\2[C@H](O)[C@H](O)C(=C2F)\CO	77.6	90.2	85	103	92.2	97.6	108	96.3	52.5	28.8	16.8	118	116	130	148	113	118	128	117	74.1	74.5	57.9	90.2	95.3	95.1	103	117	109	92.2	51.8	23.1	19	15.3
CN(C)c1ccc2cc(C(=O)N[C@@H](CCCNC(=N)CCl)C(=O)NCc3ccccc3)ccc2c1	114	115	101	115	117	112	113	121	110	101	11.7	113	112	104	111	112	110	120	90.9	101	74.1	5.29	104	105	99.7	104	122	108	115	90	106	84	6.08
N[C@@H](CC(=O)N1CCn2c(nnc2C(F)(F)F)C1)Cc1cc(F)c(F)cc1F	111	113	110	118	105	105	99.8	117	107	41.9	93.3	100	104	98.1	102	132	113	106	112	109	50	96.4	96.9	118	103	97.4	103	108	96.8	98.8	92.3	40.1	98.6
Nc1nc(OCc2ccccc2)c2nc[nH]c2n1	99.9	107	114	112	112	124	114	115	115	105	127	82	101	84.5	92.3	103	97.5	89.4	78.4	93.8	76.7	88.9	90.2	102	109	103	104	112	98.6	86.6	94.5	76.1	103
C[S+]([O-])c1ccc(-c2nc(-c3ccc(F)cc3)c(-c3ccncc3)[nH]2)cc1 (centres undefined)	83.2	84.2	91.8	84	102	81.5	86.9	62	40.9	4.09	2.22	103	106	102	105	107	79.3	75.1	41	21.9	3.29	2.41	92.6	99.7	89.8	97.8	98.1	77	79.2	59.4	26.1	3.71	2.23
CN(C)CCN(Cc1ccc(Cl)cc1)c1ccccn1.Cl	79.9	80.5	80.9	80.1	79.3	84.8	89.9	94.4	86.6	88	86.9	90.8	90.8	92.8	84.4	95.7	108	102	99.5	98.8	103	84.7	83.2	92.1	96.4	100	94	106	84	96.1	92.2	106	91.6
CC(=O)O[C@@]12CO[C@@H]1C[C@H](O)[C@]3(C)[C@@H]2[C@H](OC(=O)C4=CC=CC=C4)[C@]5(O)C[C@H](OC(=O)C(O)[C@@H](NC(=O)OC(C)(C)C)C6=CC=CC=C6)C(=C(/[C@@H](O)C3=O)C5(C)C)/C (some centres undefined)	23.5	25.1	25.4	26	26.5	27.2	26.1	23.3	22.7	18.6	5.16	13.7	22	21.2	18.1	20.1	20.7	18.1	16.7	12.1	9.57	4.28	23.4	21.1	23	21.2	21.4	19.5	18.9	16.7	16.5	10.5	2.56
COC1=CC=C(C=C1)C2CC(=N/N2C3=CC=C(C=C3)[S+](N)([O-])=O)\C4=CC=CC=C4 (centres undefined)	83.3	91.2	91.4	104	110	69.2	86.3	51.3	30.9	4.3	2.47	104	86.1	107	104	107	43.4	72.9	37.8	14.8	2.74	1.62	87.3	74	84.3	95.4	100	60.1	63.3	45.9	19	2.63	2.05
COC1(C[S+]([O-])c2ccccc2)CCN(CCc2c[nH]c3ccc(F)cc23)CC1 (centres undefined)	119	119	122	104	123	111	109	100	122	110	93.5	120	109	117	106	119	113	116	111	117	110	95.6	–	–	–	–	–	–	–	–	–	–	–
CC(C)NCC(O)c1ccc(NS(C)(=O)=O)cc1 (centres undefined)	110	110	93	106	111	124	108	105	111	116	108	109	104	117	106	109	101	96.2	87.1	92.7	97.2	107	107	99.1	97.4	104	111	105	111	106	106	109	105
